Measurements published in the supplement of paper PMC10307832.

Assays:
Experiment in all cases: relative viability (nuclei count vs DMSO), 5 days (fraction); higher = more cells survive
SGI-1776 + Navitoclax = compound: CN1CCC(CNc2ccc3ncc(-c4cccc(OC(F)(F)F)c4)n3n2)CC1 [SGI-1776] + CC1(C)CCC(c2ccc(Cl)cc2)=C(CN2CCN(c3ccc(C(=O)NS(=O)(=O)c4ccc(N[C@H](CCN5CCOCC5)CSc5ccccc5)c(S(=O)(=O)C(F)(F)F)c4)cc3)CC2)C1 [Navitoclax] (partner 0.5 µM)
Method in brief: (§1)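 Relative viability is defined as nuclei in treated wells over nuclei in vehicle wells. Duplicate plates were run and medians reported. Lung cancer cell lines in 1536-well plates were dosed by pin tool one day after seeding, with one drug or with a fixed anchor-drug dose plus five library-drug doses (not always all listed) in √10 steps, and nuclei were counted after 5 days.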

Entinostat + Luminespib = compound: Nc1ccccc1NC(=O)c1ccc(CNC(=O)OCc2cccnc2)cc1 [Entinostat] + CCNC(=O)c1noc(-c2cc(C(C)C)c(O)cc2O)c1-c1ccc(CN2CCOCC2)cc1 [Luminespib] (partner 0.01 µM)
Method in brief: as §1

Entinostat + Palbociclib = compound: Nc1ccccc1NC(=O)c1ccc(CNC(=O)OCc2cccnc2)cc1 [Entinostat] + CC(=O)c1c(C)c2cnc(Nc3ccc(N4CCNCC4)cn3)nc2n(C2CCCC2)c1=O [Palbociclib] (partner 0.5 µM)
Method in brief: as §1

Entinostat + Lapatinib = compound: Nc1ccccc1NC(=O)c1ccc(CNC(=O)OCc2cccnc2)cc1 [Entinostat] + CS(=O)(=O)CCNCc1ccc(-c2ccc3ncnc(Nc4ccc(OCc5cccc(F)c5)c(Cl)c4)c3c2)o1 [Lapatinib] (partner 2 µM)
Method in brief: as §1

| Cell Line | relative viability (SGI-1776 + Navitoclax; first compound 0.08 µM) | relative viability (SGI-1776 + Navitoclax; first compound 0.8 µM) | relative viability (SGI-1776 + Navitoclax; first compound 2.53 µM) | relative viability (SGI-1776 + Navitoclax; first compound 8 µM) | relative viability (Entinostat + Luminespib; first compound 0.02 µM) | relative viability (Entinostat + Luminespib; first compound 0.06325 µM) | relative viability (Entinostat + Luminespib; first compound 0.2 µM) | relative viability (Entinostat + Luminespib; first compound 0.6325 µM) | relative viability (Entinostat + Luminespib; first compound 2 µM) | relative viability (Entinostat + Palbociclib; first compound 0.02 µM) | relative viability (Entinostat + Palbociclib; first compound 0.06325 µM) | relative viability (Entinostat + Palbociclib; first compound 0.2 µM) | relative viability (Entinostat + Palbociclib; first compound 0.6325 µM) | relative viability (Entinostat + Palbociclib; first compound 2 µM) | relative viability (Entinostat + Lapatinib; first compound 0.02 µM) | relative viability (Entinostat + Lapatinib; first compound 0.06325 µM) | relative viability (Entinostat + Lapatinib; first compound 0.2 µM) | relative viability (Entinostat + Lapatinib; first compound 0.6325 µM) | relative viability (Entinostat + Lapatinib; first compound 2 µM) |
| --- | --- | --- | --- | --- | --- | --- | --- | --- | --- | --- | --- | --- | --- | --- | --- | --- | --- | --- | --- |
| LXF-289 | 0.966 | 0.989 | 0.963 | 0.983 | 0.754 | 0.675 | 0.739 | 0.494 | 0.354 | 0.577 | 0.606 | 0.575 | 0.509 | 0.514 | 0.884 | 0.916 | 0.841 | 0.647 | 0.481 |
| NCI-H23 | 0.988 | 0.728 | 0.837 | 0.729 | 0.187 | 0.21 | 0.229 | 0.199 | 0.18 | 0.568 | 0.661 | 0.507 | 0.509 | 0.283 | 1.17 | 1.13 | 1.02 | 0.616 | 0.476 |
| NCI-H322M | 1.28 | 1.25 | 1.15 | 1.12 | 0.909 | 1.13 | 1.06 | 1.1 | 1.03 | 0.499 | 0.533 | 0.495 | 0.546 | 0.516 | 0.643 | 0.612 | 0.623 | 0.647 | 0.621 |
| NCI-H460 | 1.12 | 1.13 | 1.07 | 1.19 | 0.0255 | 0.0353 | 0.0291 | 0.0258 | 0.0328 | 0.112 | 0.0634 | 0.0456 | 0.0231 | 0.0171 | 1 | 0.761 | 0.462 | 0.0242 | 0.0172 |
| NCI-H520 | 1.14 | 1.25 | 1.13 | 1.08 | 0.192 | 0.225 | 0.227 | 0.281 | 0.228 | 0.195 | 0.237 | 0.32 | 0.355 | 0.236 | 1.03 | 0.946 | 0.864 | 0.776 | 0.301 |
| NCI-H647 | 1.1 | 0.993 | 1.18 | 0.715 | 0.223 | 0.182 | 0.23 | 0.177 | 0.133 | 0.318 | 0.343 | 0.337 | 0.0924 | 0.0625 | 0.936 | 0.868 | 0.996 | 0.322 | 0.101 |
| NCI-H727 | 0.426 | 0.446 | 0.346 | 0.247 | 0.326 | 0.413 | 0.364 | 0.328 | 0.459 | 0.596 | 0.702 | 0.628 | 0.657 | 0.649 | 0.941 | 0.804 | 0.793 | 0.533 | 0.451 |
| NCI-H838 | 1.12 | 1.22 | 1.14 | 0.869 | 0.291 | 0.257 | 0.291 | 0.196 | 0.201 | 0.254 | 0.224 | 0.28 | 0.236 | 0.171 | 1.13 | 1.12 | 0.983 | 0.696 | 0.255 |
